Test results from US20090311246A1, “Method of Enhancing Remyelination in Demyelinating Diseases of the Central Nervous System” (priority 2008, published 2009).
“Also recorded” adds a separate entry of the source.

How the values were obtained:
B6 mice with EAE = test: Inflammation, demyelination and remyelination in lumbar spinal cord of E2 137-151 treated EAE mice; format: in vivo
Excerpt: All figures come from one micron epoxy sections taken from brain tissues, fixed in 2.5% glutaraldehyde/1% osmium tetroxide, embedded in epoxy resin, stained with toluidine blue and photographed by light microscopy.
In order to be able to detect the de- and remyelination accurately, at the end of the experiment, mice will be sacrificed by an overdose of sodium pentobarbital and perfused by intracardiac puncture with Trumps fixative, containing 4% paraformaldehyde and 1% glutaraldehyde. Brains and spinal cords are removed and post fixed in osmium textroxide. Each brain is sectioned coronally into three pieces by cuts through infandibulum and optic chiasm. Spinal cord tissues will be also harvested and processed. Every third block (10-12 blocks per spinal cord, cervical to lumbar range) will be embedded, along with brain sections, in Araldite plastic. The embedded tissues will be cross-sectioned at 1 μm thickness, and the slides stained with toluidine blue or 4% paraphenylenediamine to highlight the myelin sheets. We have studied the one-micron thin sections of the brains of SFV-infected WT and KO on days of 21-42 postinfection.
In order to be able to analyze de- and remyelination accurately in untreated and E2 137-151 treated LAE mice, one micron sections of lumbar spinal cords of all mice, were analyzed as described above for SFV-infected mice, on different days post immunization. […] Widespread Wallerian degeneration evidenced by dilated and collapsed myelin sheaths, some containing axonal remnants, was also observed. Cellular infiltration was present within the meningeal space as well. […] Spinal cord white matter of normal control mice is also shown for comparison (FIG. 8C)

[1] = tested on: SFV-infected TCR γδ-KO and WT mice; test: Clinical scores of SFV-infected, E2 137-151 immunized TCR γδ-KO and WT mice; format: in vivo; settings: 0.5 mg/injection (25 mg/kg) sc in IFA, scale 0-VI
Protocol: FIG. 5 Comparison of Clinical Scores (±SEM) of SFV-infected E2 137-151 peptide-immunized, and non-immunized TCR γδ-KO and WT mice, on different days post infection. Data shown is the average of two experiments with a total of 15 WT, 15 KO mice, and 10 immunized KO mice (only 5-10 KO mice could be obtained at each time point). SFV-infected KO mice were immunized subcutaneously with E2 137-151 (0.5 mg/injection or 25 mg/kg, based on the average weight of 20 g/mouse) in IFA, one day after SFV-infection. Additional inoculations of E2 137-151/IFA were performed on days 5, 15, and 20. Mice were sacrificed on days 7, 15, 21, and 35 pi. Clinical scores of sacrificed and dead animals have been considered in average calculation until the end of experiments on day 35. […] Data from E2-137-immunized WT mice is not shown (p=NS).
Method—Five-week old C57B16 (B6) WT and KO mice (Jackson Laboratories, Bar Harbor, Mass.) were infected with SFV, and KO mice were immunized subcutaneously with E2-137-151 (0.5 mg/injection or 25 mg/kg, based on the average weight of 20 g/mouse) in IFA, one day after SFV-infection. Additional inoculations of E2 137-151/IFA were performed on days 5 and 15 for KO mice only. Animals were observed daily for clinical manifestations of disease and were scored on a scale of 0-VI. 0=no abnormality; I-mild hind limb weakness (some difficulty righting themselves when turned on their back); II=moderate hind limb weakness, sometimes associated with floppy tail; III=weakness of hind limbs accompanied by some forelimb weakness, sometimes more marked on one limb or one side, but not complete paralysis; IV=hind limb paresis accompanied by mild forelimb weakness; V=paralysis of hind limbs, associated with moderate forelimb weakness; and VI=quadriplegia, moribund.

B6 mice = settings: unpublished data
[2] = tested on: sera from SFV-infected B6 mice; format: binding
Protocol: To measure the antibody response of both WT and γδ KO mice against SFV and two of the peptides of the SFV envelope protein, E2, an indirect ELISA was performed. Sera were pooled from 4-6 SFV-infected WT, and 3 KO, mice on days 0, 7, 14, 21 and 35 pi. Briefly, Immunolon 2HB 96 well microtiter plates (VWR, Bridge Port, N.J.) were coated with 1 μg/well of each antigen in 100 μl/well carbonate buffer overnight at room temperature. After washing, the plates were blocked and serum samples were added. […] After washing, biotinylated goat anti-mouse Igs (BD Pharmingen, Torreyana, Calif.), Strepavidin conjugated to Horse Radish Peroxidase (Vector Laboratories, Burlingame, Calif.), and OPD substrate (Sigma, St. Louis, Mo.) were used, as previously described (4, 9). […] Values were considered to be positive when they were >0.3 OD units and exceeded the mean value plus three standard deviations for antibody response on day 0 pi of mice of the same strain. […]
In some instances day 0 OD values were high, thus making the differences appear small. Therefore, to account for such discrepancy, we also determined the ratio of the highest day (day 15 or 21) over day 0.

[3] = tested on: sera from SFV-infected WT and γδ KO mice; test: ELISA of sera from SFV-infected WT and γδ KO mice against SFV, E2 peptides, PPD and rMOG; format: binding

SMILES: CC[C@H](C)[C@H](NC(=O)[C@H](CCC(=O)O)NC(=O)[C@H](CCCCN)NC(=O)CNC(=O)[C@H](Cc1ccc(O)cc1)NC(=O)[C@H](Cc1c[nH]cn1)NC(=O)[C@@H]1CCCN1C(=O)[C@H](CCCNC(=N)N)NC(=O)[C@@H](NC(=O)[C@@H](NC(=O)[C@H](Cc1ccccc1)NC(=O)[C@H](CCCCN)NC(=O)[C@H](CCC(=O)O)NC(=O)[C@H](CCCNC(=N)N)NC(=O)CN)[C@@H](C)O)[C@@H](C)CC)C(=O)O [E2 137-151]
- Wallerian degeneration in lumbar spinal cord (B6 mice with EAE; day 33): No wallerian degeneration
- Inflammation in lumbar spinal cord (B6 mice with EAE; day 33 pi): little to no inflammation; also recorded: No wallerian degeneration and inflammation is present
- Remyelination in spinal cord (B6 mice with EAE; day 33 pi): some remyelinating fibers; also recorded: some fibers display remyelination
- Remyelination in spinal cord (B6 mice with EAE; day 33 pi, listed as E2 137-151 peptide): induced remyelination
- Average clinical score / severity of disease, immunized KO compared with non-immunized KO mice ([1]; listed as E2 137-151 peptide, 25 mg/kg): significantly suppressed
- Average clinical score / severity of disease, immunized KO compared with non-immunized KO mice ([1]; listed as E2-137, 25 mg/kg): nonimmunized <E2-137 immunized KO mice
- Average clinical score / severity of disease, immunized KO compared with non-immunized KO mice ([1]; listed as E2-137-151, 25 mg/kg): decreased significantly
- Histopathology after inoculation with the peptide (B6 mice): did not cause histopathology
- Dh / D0 (Ratio) ([2]; OD of highest day (day 15 or 21) over day 0, SFV-infected sera): 3.96
- Dh−D0 (difference) ([2]; OD of highest day minus day 0, SFV-infected sera): 0.406
- Net change in the levels of antibody (ΔOD), D7-9 ([2]; SFV-infected mice sera, days 7-9 pi, day 0 OD subtracted): 0.84 ± 0.39 ΔOD
- Net change in the levels of antibody (ΔOD), D14-16 ([2]; SFV-infected mice sera, days 14-16 pi, day 0 OD subtracted): 1.83 ± 0.47 ΔOD
- Net change in the levels of antibody (ΔOD), D21-23 ([2]; SFV-infected mice sera, days 21-23 pi, day 0 OD subtracted): 2.19 ± 0.76 ΔOD
- Net change in the levels of antibody (ΔOD), D31-35 ([2]; SFV-infected mice sera, days 31-35 pi, day 0 OD subtracted): 2.08 ± 0.67 ΔOD
- Reactivity of sera from SFV-infected B6 mice with the antigen in ELISA ([2]; vs day 0): reacted
- Net change in the level of antibody, D0 WT ([3]; WT mice, day 0): 0 nano gr
- Net change in the level of antibody, D7 WT ([3]; WT mice, day 7 pi, ± SD): 72 ± 28 nano gr
- Net change in the level of antibody, D14 WT ([3]; WT mice, day 14 pi, ± SD): 565 ± 33 nano gr
- Net change in the level of antibody, D21 WT ([3]; WT mice, day 21 pi, ± SD): 1196 ± 61 nano gr
- Net change in the level of antibody, D35 WT ([3]; WT mice, day 35 pi, ± SD): 951 ± 50 nano gr
- Reactivity of sera from SFV-infected WT mice ([3]; WT, sera 1:80, day 7 pi increasing to day 35): reacted strongly
- Net change in the level of antibody, D0 KO ([3]; γδ KO mice, day 0): 0 nano gr
- Net change in the level of antibody, D7 KO ([3]; γδ KO mice, day 7 pi, ± SD): 39 ± 25 nano gr
- Net change in the level of antibody, D14 KO ([3]; γδ KO mice, day 14 pi, ± SD): 36 ± 19 nano gr
- Net change in the level of antibody, D21 KO ([3]; γδ KO mice, day 21 pi, ± SD): 46.5 ± 19 nano gr
- Net change in the level of antibody, D35 KO ([3]; γδ KO mice, day 35 pi, ± SD): 41 ± 28 nano gr
- Reactivity of sera from SFV-infected γδ KO mice ([3]; γδ KO, sera 1:80): marginally reacted
